Results from ChEMBL document CHEMBL1128822, “Synthesis and biological evaluation of 2,3-diarylthiophenes as selective Cox-2 and Cox-1 inhibitors” (Bioorg Med Chem Lett, 1995).

target: T1, Prostaglandin G/H synthase 2 (Homo sapiens, UniProt P35354); experiment: Inhibitory activity against human COX-2 expressed in baculovirus infected Sf9 cells; assay type: cell-based
T1 sequence (P35354 whole entry): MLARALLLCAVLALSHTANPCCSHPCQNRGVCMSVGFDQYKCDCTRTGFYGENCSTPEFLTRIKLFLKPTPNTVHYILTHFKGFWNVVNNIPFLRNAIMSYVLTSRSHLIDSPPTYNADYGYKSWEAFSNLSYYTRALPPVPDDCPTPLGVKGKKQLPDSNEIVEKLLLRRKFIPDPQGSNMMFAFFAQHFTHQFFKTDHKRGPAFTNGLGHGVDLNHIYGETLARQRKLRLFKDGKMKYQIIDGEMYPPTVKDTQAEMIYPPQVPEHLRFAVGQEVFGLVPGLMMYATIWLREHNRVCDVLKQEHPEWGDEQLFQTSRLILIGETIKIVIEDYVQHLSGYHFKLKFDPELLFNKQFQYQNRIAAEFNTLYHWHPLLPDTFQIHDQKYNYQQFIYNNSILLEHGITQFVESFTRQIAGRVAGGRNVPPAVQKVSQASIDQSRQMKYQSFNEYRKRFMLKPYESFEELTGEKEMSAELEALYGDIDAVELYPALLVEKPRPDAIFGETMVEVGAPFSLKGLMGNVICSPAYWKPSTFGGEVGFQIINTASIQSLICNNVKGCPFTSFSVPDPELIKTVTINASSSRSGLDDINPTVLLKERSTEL

**Q.** `CNS(=O)(=O)c1ccc(-c2ccsc2-c2ccc(F)cc2)cc1` was tested. Which IC50 did it give?
**A.** The IC50 was 7.2 µM.

**Q.** Which IC50 does the source give for `OCc1ccc(-c2ccsc2-c2ccc(F)cc2)cc1` here?
**A.** Its IC50 is over 30 µM.

**Q.** With `N#Cc1ccc(-c2ccsc2-c2ccc(F)cc2)cc1` as the molecule, how does the IC50 read?
**A.** The IC50 was over 30 µM.

**Q.** With `O=C(O)Cc1ccc(-c2ccsc2-c2ccc(F)cc2)cc1` as the molecule, how does the IC50 read?
**A.** The IC50 was over 30 µM.

**Q.** Which IC50 does the source give for `O=C(O)c1ccc(-c2ccsc2-c2ccc(F)cc2)cc1` here?
**A.** The IC50 was over 30 µM.

**Q.** How did the IC50 turn out when `O=Cc1ccc(-c2ccsc2-c2ccc(F)cc2)cc1` was run?
**A.** Its IC50 is over 30 µM.

**Q.** `COC(=O)c1ccc(-c2ccsc2-c2ccc(F)cc2)cc1` was tested. Which IC50 did it give?
**A.** The IC50 was over 30 µM.

**Q.** `CC(C)(O)c1cc(-c2ccc(F)cc2)c(-c2ccc(S(N)(=O)=O)cc2)s1` was tested. Which IC50 did it give?
**A.** Its IC50 is 1.6 µM.

**Q.** For `NS(=O)(=O)c1ccc(-c2ccsc2-c2ccc(F)cc2)cc1`, which IC50 is on record?
**A.** Its IC50 is 0.03 µM.

**Q.** Which IC50 does the source give for `COC(=O)c1cc(-c2ccc(S(N)(=O)=O)cc2)c(-c2ccc(F)cc2)s1` here?
**A.** Its IC50 is 0.07 µM.

**Q.** `CS(=O)(=O)c1ccc(-c2ccsc2-c2ccc(F)cc2)cc1` was tested. Which IC50 did it give?
**A.** Its IC50 is 0.25 µM.

**Q.** How did the IC50 turn out when `COC(=O)c1cc(-c2ccc(F)cc2)c(-c2ccc(S(N)(=O)=O)cc2)s1` was run?
**A.** Its IC50 is over 30 µM.

**Q.** With `CC(C)(O)c1cc(-c2ccc(S(N)(=O)=O)cc2)c(-c2ccc(F)cc2)s1` as the molecule, how does the IC50 read?
**A.** The IC50 was 0.41 µM.

**Q.** For `CCS(=O)(=O)c1ccc(-c2ccsc2-c2ccc(F)cc2)cc1`, which IC50 is on record?
**A.** The IC50 was over 30 µM.

**Q.** How did the IC50 turn out when `CC(C)c1cc(-c2ccc(S(N)(=O)=O)cc2)c(-c2ccc(F)cc2)s1` was run?
**A.** Its IC50 is 0.01 µM.

**Q.** For `C[S+]([O-])c1ccc(-c2ccsc2-c2ccc(F)cc2)cc1` (configuration not stated), which IC50 is on record?
**A.** The IC50 was over 30 µM.

**Q.** How did the IC50 turn out when `CSc1ccc(-c2ccsc2-c2ccc(F)cc2)cc1` was run?
**A.** Its IC50 is over 30 µM.

**Q.** How did the IC50 turn out when `CC(=O)NS(=O)(=O)c1ccc(-c2ccsc2-c2ccc(F)cc2)cc1` was run?
**A.** Its IC50 is 5.4 µM.

**Q.** `CS(=O)(=O)c1ccc(-c2sc(Br)cc2-c2ccc(F)cc2)cc1` was tested. Which IC50 did it give?
**A.** Its IC50 is 0.02 µM.

**Q.** Which IC50 does the source give for `CS(=O)(=O)c1ccc(-c2sccc2-c2ccc(F)cc2)cc1` here?
**A.** The IC50 was 4.3 µM.

**Q.** Which IC50 does the source give for `NC(=O)c1ccc(-c2ccsc2-c2ccc(F)cc2)cc1` here?
**A.** The IC50 was over 30 µM.

**Q.** With `CC(=O)c1ccc(-c2ccsc2-c2ccc(F)cc2)cc1` as the molecule, how does the IC50 read?
**A.** The IC50 was over 30 µM.

**Q.** For `NS(=O)(=O)c1ccc(-c2sccc2-c2ccc(F)cc2)cc1`, which IC50 is on record?
**A.** The IC50 was 0.67 µM.

**Q.** With `C[Se](=O)(=O)c1ccc(-c2ccsc2-c2ccc(F)cc2)cc1` as the molecule, how does the IC50 read?
**A.** The IC50 was 0.55 µM.

target: Prostaglandin G/H synthase 1 (Homo sapiens, UniProt P23219); experiment: Inhibitory activity against human COX-1 expressed in baculovirus infected Sf9 cells
Sequence (P23219 whole entry): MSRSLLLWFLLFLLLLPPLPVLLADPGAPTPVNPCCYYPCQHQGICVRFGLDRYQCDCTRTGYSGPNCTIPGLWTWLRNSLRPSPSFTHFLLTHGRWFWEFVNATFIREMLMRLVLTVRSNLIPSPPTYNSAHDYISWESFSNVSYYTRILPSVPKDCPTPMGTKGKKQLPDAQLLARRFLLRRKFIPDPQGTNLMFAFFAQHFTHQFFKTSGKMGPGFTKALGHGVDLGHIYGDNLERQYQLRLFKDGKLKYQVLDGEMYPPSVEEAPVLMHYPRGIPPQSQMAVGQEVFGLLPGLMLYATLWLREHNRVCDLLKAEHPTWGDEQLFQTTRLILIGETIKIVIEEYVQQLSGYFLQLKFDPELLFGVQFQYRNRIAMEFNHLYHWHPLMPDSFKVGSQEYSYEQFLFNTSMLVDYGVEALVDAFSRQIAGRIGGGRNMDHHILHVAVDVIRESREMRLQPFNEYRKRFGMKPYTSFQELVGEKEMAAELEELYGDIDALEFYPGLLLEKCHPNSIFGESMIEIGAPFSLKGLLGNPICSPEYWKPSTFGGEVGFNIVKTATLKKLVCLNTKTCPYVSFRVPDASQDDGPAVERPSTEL

**Q.** How did the IC50 turn out when `CNS(=O)(=O)c1ccc(-c2ccsc2-c2ccc(F)cc2)cc1` was run?
**A.** The IC50 was over 50 µM.

**Q.** `OCc1ccc(-c2ccsc2-c2ccc(F)cc2)cc1` was tested. Which IC50 did it give?
**A.** Its IC50 is 0.35 µM.

**Q.** How did the IC50 turn out when `N#Cc1ccc(-c2ccsc2-c2ccc(F)cc2)cc1` was run?
**A.** Its IC50 is 0.21 µM.

**Q.** `O=C(O)c1ccc(-c2ccsc2-c2ccc(F)cc2)cc1` was tested. Which IC50 did it give?
**A.** The IC50 was over 50 µM.

**Q.** For `O=Cc1ccc(-c2ccsc2-c2ccc(F)cc2)cc1`, which IC50 is on record?
**A.** Its IC50 is 0.98 µM.

**Q.** With `COC(=O)c1ccc(-c2ccsc2-c2ccc(F)cc2)cc1` as the molecule, how does the IC50 read?
**A.** Its IC50 is 17 µM.

**Q.** For `CC(C)(O)c1cc(-c2ccc(F)cc2)c(-c2ccc(S(N)(=O)=O)cc2)s1`, which IC50 is on record?
**A.** The IC50 was over 50 µM.

**Q.** For `NS(=O)(=O)c1ccc(-c2ccsc2-c2ccc(F)cc2)cc1`, which IC50 is on record?
**A.** The IC50 was 1.3 µM.

**Q.** For `COC(=O)c1cc(-c2ccc(S(N)(=O)=O)cc2)c(-c2ccc(F)cc2)s1`, which IC50 is on record?
**A.** The IC50 was 1 µM.

**Q.** Which IC50 does the source give for `CS(=O)(=O)c1ccc(-c2ccsc2-c2ccc(F)cc2)cc1` here?
**A.** Its IC50 is over 100 µM.

**Q.** Which IC50 does the source give for `COC(=O)c1cc(-c2ccc(F)cc2)c(-c2ccc(S(N)(=O)=O)cc2)s1` here?
**A.** The IC50 was over 50 µM.

**Q.** For `CC(C)(O)c1cc(-c2ccc(S(N)(=O)=O)cc2)c(-c2ccc(F)cc2)s1`, which IC50 is on record?
**A.** Its IC50 is 5.4 µM.

**Q.** For `CCS(=O)(=O)c1ccc(-c2ccsc2-c2ccc(F)cc2)cc1`, which IC50 is on record?
**A.** Its IC50 is over 50 µM.

**Q.** `CC(C)c1cc(-c2ccc(S(N)(=O)=O)cc2)c(-c2ccc(F)cc2)s1` was tested. Which IC50 did it give?
**A.** Its IC50 is 0.23 µM.

**Q.** `C[S+]([O-])c1ccc(-c2ccsc2-c2ccc(F)cc2)cc1` (configuration not stated) was tested. Which IC50 did it give?
**A.** The IC50 was 15 µM.

**Q.** Which IC50 does the source give for `CSc1ccc(-c2ccsc2-c2ccc(F)cc2)cc1` here?
**A.** The IC50 was 0.34 µM.

**Q.** With `CC(=O)NS(=O)(=O)c1ccc(-c2ccsc2-c2ccc(F)cc2)cc1` as the molecule, how does the IC50 read?
**A.** Its IC50 is over 50 µM.

**Q.** Which IC50 does the source give for `CS(=O)(=O)c1ccc(-c2sc(Br)cc2-c2ccc(F)cc2)cc1` here?
**A.** The IC50 was 1.1 µM.

**Q.** How did the IC50 turn out when `CS(=O)(=O)c1ccc(-c2sccc2-c2ccc(F)cc2)cc1` was run?
**A.** Its IC50 is over 50 µM.

**Q.** With `NC(=O)c1ccc(-c2ccsc2-c2ccc(F)cc2)cc1` as the molecule, how does the IC50 read?
**A.** The IC50 was 3.2 µM.

**Q.** `CC(=O)c1ccc(-c2ccsc2-c2ccc(F)cc2)cc1` was tested. Which IC50 did it give?
**A.** Its IC50 is 0.75 µM.

**Q.** `NS(=O)(=O)c1ccc(-c2sccc2-c2ccc(F)cc2)cc1` was tested. Which IC50 did it give?
**A.** Its IC50 is 2.7 µM.

**Q.** Which IC50 does the source give for `C[Se](=O)(=O)c1ccc(-c2ccsc2-c2ccc(F)cc2)cc1` here?
**A.** The IC50 was 32 µM.
